Data on two compounds can be found in ChEMBL document CHEMBL4602709 (ACS Med Chem Lett, 2020).

The nature of data set [1]: Metabolic stability in human liver microsomes assessed as half life at 3 uM measured up to 30 mins in presence of NADPH by […] analysis. The class given is ADME, Microsome. (Liver microsomes are a subcellular fraction often used to study metabolism.)
Data set [2] can be described thus: Metabolic stability in mouse liver microsomes assessed as half life at 3 uM measured up to 30 mins in presence of NADPH by […] analysis. The format is ADME, Microsome.
The target in data set [3] is Proto-oncogene tyrosine-protein kinase Src (Homo sapiens, UniProt P12931). In words: Inhibition of SRC (unknown origin) assessed as residual activity at 10 uM incubated for 5 mins in presence of [gamma-33ATP] by scintillation counting based radiometry assay relative to control.
Sequence of Proto-oncogene tyrosine-protein kinase Src (P12931 2-536 limits assumed): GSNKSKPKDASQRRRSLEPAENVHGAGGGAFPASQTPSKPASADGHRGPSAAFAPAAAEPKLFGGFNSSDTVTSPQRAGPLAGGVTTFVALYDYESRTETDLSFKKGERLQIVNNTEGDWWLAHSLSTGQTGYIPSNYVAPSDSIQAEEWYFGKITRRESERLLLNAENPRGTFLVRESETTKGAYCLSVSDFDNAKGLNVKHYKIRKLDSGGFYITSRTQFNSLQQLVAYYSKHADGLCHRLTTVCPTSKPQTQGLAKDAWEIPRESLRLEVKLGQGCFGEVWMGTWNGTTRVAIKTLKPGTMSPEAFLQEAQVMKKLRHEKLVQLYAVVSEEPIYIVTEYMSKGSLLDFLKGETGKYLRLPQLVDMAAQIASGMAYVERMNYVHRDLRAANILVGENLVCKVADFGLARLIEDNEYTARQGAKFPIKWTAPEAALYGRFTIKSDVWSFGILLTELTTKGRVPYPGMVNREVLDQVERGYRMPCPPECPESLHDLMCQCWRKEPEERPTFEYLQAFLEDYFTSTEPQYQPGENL
The target in data set [4] is T1, Ephrin type-B receptor 3 (Homo sapiens) (UniProt P54753).
T1 sequence (whole entry): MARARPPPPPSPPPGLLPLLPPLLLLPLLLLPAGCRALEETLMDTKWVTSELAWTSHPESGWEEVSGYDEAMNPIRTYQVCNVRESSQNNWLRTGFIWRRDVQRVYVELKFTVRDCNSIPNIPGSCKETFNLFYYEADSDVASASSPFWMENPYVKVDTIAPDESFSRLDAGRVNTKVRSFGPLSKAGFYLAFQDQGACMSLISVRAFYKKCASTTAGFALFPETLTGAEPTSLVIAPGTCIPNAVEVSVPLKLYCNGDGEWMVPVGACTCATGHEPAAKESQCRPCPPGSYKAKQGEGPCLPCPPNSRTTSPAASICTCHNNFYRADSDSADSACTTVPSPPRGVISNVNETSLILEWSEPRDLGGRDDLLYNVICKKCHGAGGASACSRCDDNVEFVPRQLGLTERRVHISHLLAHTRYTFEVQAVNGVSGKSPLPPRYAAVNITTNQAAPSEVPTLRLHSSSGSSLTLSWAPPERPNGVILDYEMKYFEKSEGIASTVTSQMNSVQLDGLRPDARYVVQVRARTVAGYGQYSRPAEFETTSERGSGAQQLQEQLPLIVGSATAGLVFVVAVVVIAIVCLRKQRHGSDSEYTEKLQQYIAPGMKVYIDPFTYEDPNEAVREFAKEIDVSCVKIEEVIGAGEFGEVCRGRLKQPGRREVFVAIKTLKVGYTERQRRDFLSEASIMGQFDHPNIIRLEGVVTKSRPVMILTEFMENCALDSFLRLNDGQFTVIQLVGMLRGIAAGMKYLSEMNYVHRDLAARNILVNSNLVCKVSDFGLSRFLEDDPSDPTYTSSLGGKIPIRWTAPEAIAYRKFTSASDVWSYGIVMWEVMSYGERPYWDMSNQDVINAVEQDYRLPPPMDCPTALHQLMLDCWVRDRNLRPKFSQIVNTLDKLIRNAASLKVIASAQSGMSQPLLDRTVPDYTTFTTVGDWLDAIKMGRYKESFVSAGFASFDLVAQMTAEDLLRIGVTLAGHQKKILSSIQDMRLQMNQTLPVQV
In words: Inhibition of EPHB3 (unknown origin) assessed as residual activity at 10 uM incubated for 5 mins in presence of [gamma-33ATP] by scintillation counting based radiometry assay relative to control.

The target in data set [5] is T2, Mitogen-activated protein kinase kinase kinase kinase 3 (Homo sapiens) (UniProt Q8IVH8).
T2 sequence (whole entry): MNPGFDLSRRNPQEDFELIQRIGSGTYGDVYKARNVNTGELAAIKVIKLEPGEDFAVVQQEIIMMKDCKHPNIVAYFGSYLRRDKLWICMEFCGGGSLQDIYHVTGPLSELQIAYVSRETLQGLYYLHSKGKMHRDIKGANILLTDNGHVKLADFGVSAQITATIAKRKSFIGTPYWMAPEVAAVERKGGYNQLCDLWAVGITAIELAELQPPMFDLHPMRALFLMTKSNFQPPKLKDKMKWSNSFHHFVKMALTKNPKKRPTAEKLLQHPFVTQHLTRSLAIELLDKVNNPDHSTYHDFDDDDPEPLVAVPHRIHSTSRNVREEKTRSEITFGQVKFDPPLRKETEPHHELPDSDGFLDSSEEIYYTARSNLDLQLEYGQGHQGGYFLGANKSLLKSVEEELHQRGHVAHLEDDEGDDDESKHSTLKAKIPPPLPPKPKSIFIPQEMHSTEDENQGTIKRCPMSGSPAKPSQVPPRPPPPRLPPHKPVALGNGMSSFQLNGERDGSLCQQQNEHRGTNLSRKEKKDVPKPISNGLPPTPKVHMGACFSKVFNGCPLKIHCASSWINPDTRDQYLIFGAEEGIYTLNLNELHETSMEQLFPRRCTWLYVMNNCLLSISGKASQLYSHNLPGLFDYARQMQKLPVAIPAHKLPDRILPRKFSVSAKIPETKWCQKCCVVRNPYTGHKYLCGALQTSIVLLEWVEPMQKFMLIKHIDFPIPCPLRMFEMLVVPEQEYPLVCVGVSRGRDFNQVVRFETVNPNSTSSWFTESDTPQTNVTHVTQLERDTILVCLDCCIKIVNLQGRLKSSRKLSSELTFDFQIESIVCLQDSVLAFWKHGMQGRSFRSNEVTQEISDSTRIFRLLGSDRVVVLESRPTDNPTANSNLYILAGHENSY
Kind of data set: Inhibition of MAP4K3 (unknown origin) assessed as residual activity at 10 uM incubated for 5 mins in presence of [gamma-33ATP] by scintillation counting based radiometry assay relative to control.

For `Cc1cn(-c2cc(NC(=O)c3ccc(C)c(Nc4nccc(-c5cccnc5)n4)c3)cc(C(F)(F)F)c2)cn1` [NILOTINIB], the half-life at 3 µM in data set [1] and in data set [2] was 7.89 min in each case. For the same compound, the Activity in data set [3] worked out at 74%; in data set [4], 52%; in data set [5] it was 107%.
As for `Cc1ccc(C(=O)Nc2ccc(CN3Cc4cn[nH]c4C3)c(Cl)c2)cc1C#Cc1cnc2cccnn12`, the half-life (commonly the time in which the quantity being followed falls by half) at 3 µM turned out to be 39.8 min in data set [1] and 16.8 min in data set [2]. The Activity came out at 15% in data set [3], 5% in data set [4] and 14% in data set [5].
